From patent US20080176870A1, “Heterobicyclic metalloprotease inhibitors” (priority 2006, published 2008)

What follows are molecules tested against T1, catalytic domain of MMP-13 enzyme (Homo sapiens, UniProt P45452) (assay: Assay for determining MMP-13 inhibition (fluorescent substrate)). Details: Table 1, Summary of MMP-13 Activity for Compounds; read-out: MMP-13 Activity (IC50 MMP-13), Group.
T1 construct: 10 μL of a 50 nM stock solution of catalytic domain of MMP-13 enzyme (produced by Alantos)
Type: biochemical
Method: Assay for Determining MMP-13 Inhibition
The typical assay for MMP-13 activity is carried out in assay buffer comprised of 50 mM Tris, pH 7.5, 150 mM NaCl, 5 mM CaCl2 and 0.05% Brij-35. Different concentrations of tested compounds are prepared in assay buffer in 50 μL aliquots. 10 μL of a 50 nM stock solution of catalytic domain of MMP-13 enzyme (produced by Alantos) is added to the compound solution. The mixture of enzyme and compound in assay buffer is thoroughly mixed and incubated for 10 min at room temperature. Upon the completion of incubation, the assay is started by addition of 40 μL of a 12.5 μM stock solution of MMP-13 fluorescent substrate (Calbiochem, Cat. No. 444235). The time-dependent increase in fluorescence is measured at the 320 nm excitation and 390 nm emission by automatic plate multireader. The IC50 values are calculated from the initial reaction rates.
`O=C1COc2ccc(CNC(=O)c3cc(-c4nnn(Cc5ccc(C(=O)O)cc5)n4)n4nccc4n3)cc2N1` [Example 160] was tested, and the IC50 was < 200 nM.
In the case of `Nc1c(N2CCc3ccc(CNC(=O)c4cc(C(=O)O)n5ncnc5n4)cc3C2)c(=O)c1=O` [Example 195], the IC50 is reported as 201 to 20000 nM.
`Cc1cc(CNC(=O)c2cc(C(=O)O)n3nccc3n2)ccc1F` [Example 193] was tested, and the IC50 was 201 to 20000 nM.
For `Cc1c(C(=O)O)ccc2c1CC[C@@H]2NC(=O)c1cc(C(=O)NCc2ccc3c(c2)NC(=O)CO3)nc2ccccc12` [Example 211], the IC50 was 201 to 20000 nM.
`O=C1COc2ccc(CNC(=O)c3cc(C(F)(F)F)n4ncnc4n3)cc2N1` [Example 188] showed an IC50 of 201 to 20000 nM.
Work on `O=C(NCc1ccc(F)cc1)c1cc(NC(=O)C23CCC(C(=O)O)(CC2)CC3)n2nccc2n1` [Example 209] yielded an IC50 of 201 to 20000 nM.
With `O=C1COc2ccc(CNC(=O)c3cc(-c4nn[nH]n4)n4ncc(F)c4n3)cc2N1` [Example 141] the IC50 was < 200 nM.
With `Cc1c(C(=O)O)ccc2c1CCC2N(CC(=O)O)Cc1cc(C(=O)NCc2ccc(F)c(F)c2)nc2ccnn12` (stereo not shown) [Example 32, 1-{carboxymethyl-[5-(3,4-difluoro-benzylcarbamoyl)-pyrazolo[1,5-a]pyrimidin-7-ylmethyl]-amino}-4-methyl-indan-5-carboxylic acid] the IC50 was < 200 nM.
`Cc1c(C(=O)O)ccc2c1CCC2NCc1cc(C(=O)NCc2ccc(F)c(F)c2)nc2ccnn12` (stereo not shown) [Example 29, 1-{[5-(3,4-difluoro-benzylcarbamoyl)-pyrazolo[1,5-a]pyrimidin-7-ylmethyl]-amino}-4-methyl-indan-5-carboxylic acid] was tested, and the IC50 was < 200 nM.
`CC(C)(C)n1nnc(-c2cc(C(=O)NCc3ccc4c(c3)NC(=O)CO4)nc3ccnn23)n1` [Example 152] was tested, and the IC50 was < 200 nM.
`O=C(NCC12CCC(C(=O)O)(CC1)CC2)Nc1cc(C(=O)NCc2ccc(F)cc2)nc2ccnn12` [Example 208] was tested, and the IC50 was < 200 nM.
With `CC(C)(C)c1noc(-c2cc(C(=O)NCc3ccc4c(c3)NC(=O)CO4)nc3c(F)cnn23)n1` [Example 163] the IC50 was < 200 nM.
`N#Cc1cc(C(=O)NCc2ccc3c(c2)NC(=O)CO3)nc2ncnn12` [Example 190] was tested, and the IC50 was 201 to 20000 nM.
